Laboratory results from patent US20110053773A1, “METHODS OF IMPROVING NUTRITIONAL VALUE OF PLANTS” (UNIVERSITY OF TENNESSEE RESEARCH FOUNDATION, priority 2009, published 2011).

Tests used:
Format in all cases: in vivo
[1] = system: sweet corn variety WH0809; assay: Visual injury of sweet corn after POST herbicide inhibitors of photosynthesis (Example 2)
Method: (§1) A field study was conducted at Greenback, TN to investigate POST applications of several herbicide inhibitors of photosynthesis for sweet corn safety and for changes in carbohydrate content in the kernels of sweet corn among treatments. Treatments included bentazon at 1120 and 2240 g ai/ha, linuron at 280 and 560 g ai/ha, metribuzin at 105 and 210 g ai/ha, and bromoxynil at 560 and 1120 g ai/ha. All treatments included a PRE application of a common residual corn herbicide in order to maintain weed free conditions. […] Sweet corn was harvested from the center two rows of each four row plot and weighed in the husk. Eight ears of corn were harvested from each plot and were pooled over replicates for analysis of key carbohydrates which included the sugars sucrose, fructose, glucose, maltose, and raffanose.

[2] = system: sweet corn variety WH0809; assay: Sweet corn yield, harvested and weighed in the husk (Example 2); conditions: treated check 9758.4
Method: as §1

[3] = system: sweet corn variety WH0809; assay: Sugar content of sweet corn kernels (Example 2); conditions: for Sugar content Raffanose: treated check 0.51; for Sugar content Maltose: treated check 0.61; for Sugar content Fructose: treated check 1.04; for Sugar content Glucose: treated check 1.91; for Sugar content Sucrose: treated check 10.72
Method: as §1

[4] = 560 g ai/ha + COC 1% v/v POST, 1st of 3 Injury columns, rating date not given
[5] = 560 g ai/ha + COC 1% v/v POST, 2nd of 3 Injury columns (agrees with 14 DAT of b67)
[6] = 560 g ai/ha + COC 1% v/v POST, 3rd of 3 Injury columns, rating date not given
[7] = 1120 g ai/ha + COC 1% v/v POST, 1st of 3 Injury columns, rating date not given
[8] = 1120 g ai/ha + COC 1% v/v POST, 2nd of 3 Injury columns (agrees with 14 DAT of b67)
[9] = 1120 g ai/ha + COC 1% v/v POST, 3rd of 3 Injury columns, rating date not given

CSc1nnc(C(C)(C)C)c(=O)n1N [METRIBUZIN, metribuzin]
Injury ([1]; 105 g ai/ha + COC 1% v/v POST, 1st of 3 Injury columns, rating date not given): 12% | Injury ([1]; 105 g ai/ha + COC 1% v/v POST, 2nd of 3 Injury columns (agrees with 14 DAT of b67)): 13% | Injury ([1]; 105 g ai/ha + COC 1% v/v POST, 3rd of 3 Injury columns, rating date not given): 5% | Injury ([1]; 210 g ai/ha + COC 1% v/v POST, 1st of 3 Injury columns, rating date not given): 17% | Injury ([1]; 210 g ai/ha + COC 1% v/v POST, 2nd of 3 Injury columns (agrees with 14 DAT of b67)): 30% | Injury ([1]; 210 g ai/ha + COC 1% v/v POST, 3rd of 3 Injury columns, rating date not given): 22% | YIELD ([2]; 105 g ai/ha + COC 1% v/v POST): 10715.4 kg | YIELD ([2]; 210 g ai/ha + COC 1% v/v POST): 8967.5 kg | Sugar content Raffanose ([3]; 105 g ai/ha + COC 1% v/v POST): 0.36 mg/g dw | Sugar content Maltose ([3]; 105 g ai/ha + COC 1% v/v POST): 0.49 mg/g dw | Sugar content Fructose ([3]; 105 g ai/ha + COC 1% v/v POST): 1.04 mg/g dw | Sugar content Glucose ([3]; 105 g ai/ha + COC 1% v/v POST): 1.79 mg/g dw | Sugar content Sucrose ([3]; 105 g ai/ha + COC 1% v/v POST): 9.35 mg/g dw | fructose increase compared to the untreated check ([3]; 210 g ai/ha): 115% | glucose increase compared to the untreated check ([3]; 210 g ai/ha): 106% | maltose increase compared to the untreated check ([3]; 210 g ai/ha): 74% | raffanose increase compared to the untreated check ([3]; 210 g ai/ha): 59% | sucrose increase compared to the untreated check ([3]; 210 g ai/ha): 103% | Sugar content Raffanose ([3]; 210 g ai/ha + COC 1% v/v POST): 0.81 mg/g dw | Sugar content Maltose ([3]; 210 g ai/ha + COC 1% v/v POST): 1.06 mg/g dw | Sugar content Fructose ([3]; 210 g ai/ha + COC 1% v/v POST): 2.24 mg/g dw | Sugar content Glucose ([3]; 210 g ai/ha + COC 1% v/v POST): 3.93 mg/g dw | Sugar content Sucrose ([3]; 210 g ai/ha + COC 1% v/v POST): 21.79 mg/g dw

N#Cc1cc(Br)c(O)c(Br)c1 [BROMOXYNIL, bromoxynil]
Injury [1, 4]: 37% | Injury [1, 5]: 35% | Injury [1, 6]: 27% | Injury [1, 7]: 45% | Injury [1, 8]: 47% | Injury [1, 9]: 35% | YIELD ([2]; 560 g ai/ha + COC 1% v/v POST): 9436.2 kg | YIELD ([2]; 1120 g ai/ha + COC 1% v/v POST): 9142.6 kg | Sugar content Raffanose ([3]; 560 g ai/ha + COC 1% v/v POST): 0.77 mg/g dw | Sugar content Maltose ([3]; 560 g ai/ha + COC 1% v/v POST): 0.88 mg/g dw | Sugar content Fructose ([3]; 560 g ai/ha + COC 1% v/v POST): 1.74 mg/g dw | Sugar content Glucose ([3]; 560 g ai/ha + COC 1% v/v POST): 3.07 mg/g dw | Sugar content Sucrose ([3]; 560 g ai/ha + COC 1% v/v POST): 15.56 mg/g dw | Sugar content Raffanose ([3]; 1120 g ai/ha + COC 1% v/v POST): 0.54 mg/g dw | Sugar content Maltose ([3]; 1120 g ai/ha + COC 1% v/v POST): 0.60 mg/g dw | Sugar content Fructose ([3]; 1120 g ai/ha + COC 1% v/v POST): 1.77 mg/g dw | Sugar content Glucose ([3]; 1120 g ai/ha + COC 1% v/v POST): 2.70 mg/g dw | Sugar content Sucrose ([3]; 1120 g ai/ha + COC 1% v/v POST): 14.50 mg/g dw

CON(C)C(=O)Nc1ccc(Cl)c(Cl)c1 [LINURON, linuron]
Injury ([1]; 280 g ai/ha + COC 1% v/v POST, 1st of 3 Injury columns, rating date not given): 25% | Injury ([1]; 280 g ai/ha + COC 1% v/v POST, 2nd of 3 Injury columns (agrees with 14 DAT of b67)): 22% | Injury ([1]; 280 g ai/ha + COC 1% v/v POST, 3rd of 3 Injury columns, rating date not given): 25% | Injury [1, 4]: 38% | Injury [1, 5]: 35% | Injury [1, 6]: 27% | YIELD ([2]; 280 g ai/ha + COC 1% v/v POST): 8062.6 kg | YIELD ([2]; 560 g ai/ha + COC 1% v/v POST): 9227.9 kg | Sugar content Raffanose ([3]; 280 g ai/ha + COC 1% v/v POST): 0.64 mg/g dw | Sugar content Maltose ([3]; 280 g ai/ha + COC 1% v/v POST): 0.95 mg/g dw | Sugar content Fructose ([3]; 280 g ai/ha + COC 1% v/v POST): 1.86 mg/g dw | Sugar content Glucose ([3]; 280 g ai/ha + COC 1% v/v POST): 3.22 mg/g dw | Sugar content Sucrose ([3]; 280 g ai/ha + COC 1% v/v POST): 12.02 mg/g dw | Sugar content Raffanose ([3]; 560 g ai/ha + COC 1% v/v POST): 0.48 mg/g dw | Sugar content Maltose ([3]; 560 g ai/ha + COC 1% v/v POST): 0.59 mg/g dw | Sugar content Fructose ([3]; 560 g ai/ha + COC 1% v/v POST): 1.39 mg/g dw | Sugar content Glucose ([3]; 560 g ai/ha + COC 1% v/v POST): 2.33 mg/g dw | Sugar content Sucrose ([3]; 560 g ai/ha + COC 1% v/v POST): 13.30 mg/g dw

CC(C)N1C(=O)c2ccccc2NS1(=O)=O [BENTAZON, bentazon]
Injury [1, 7]: 5% | Injury [1, 8]: 17% | Injury [1, 9]: 0% | Injury ([1]; 2240 g ai/ha + COC 1% v/v POST, 1st of 3 Injury columns, rating date not given): 12% | Injury ([1]; 2240 g ai/ha + COC 1% v/v POST, 2nd of 3 Injury columns (agrees with 14 DAT of b67)): 10% | Injury ([1]; 2240 g ai/ha + COC 1% v/v POST, 3rd of 3 Injury columns, rating date not given): 2% | YIELD ([2]; 1120 g ai/ha + COC 1% v/v POST): 10317 kg | YIELD ([2]; 2240 g ai/ha + COC 1% v/v POST): 10565.6 kg | Sugar content Raffanose ([3]; 1120 g ai/ha + COC 1% v/v POST): 0.56 mg/g dw | Sugar content Maltose ([3]; 1120 g ai/ha + COC 1% v/v POST): 0.96 mg/g dw | Sugar content Fructose ([3]; 1120 g ai/ha + COC 1% v/v POST): 1.69 mg/g dw | Sugar content Glucose ([3]; 1120 g ai/ha + COC 1% v/v POST): 2.65 mg/g dw | Sugar content Sucrose ([3]; 1120 g ai/ha + COC 1% v/v POST): 13.18 mg/g dw | Sugar content Raffanose ([3]; 2240 g ai/ha + COC 1% v/v POST): 0.84 mg/g dw | Sugar content Maltose ([3]; 2240 g ai/ha + COC 1% v/v POST): 1.26 mg/g dw | Sugar content Fructose ([3]; 2240 g ai/ha + COC 1% v/v POST): 1.78 mg/g dw | Sugar content Glucose ([3]; 2240 g ai/ha + COC 1% v/v POST): 3.41 mg/g dw | Sugar content Sucrose ([3]; 2240 g ai/ha + COC 1% v/v POST): 18.67 mg/g dw
